Holding throughout (test): relative viability (nuclei count vs DMSO), 5 days (fraction); higher = more cells survive
Compound in one test: CC1(C)CNc2cc(NC(=O)c3cccnc3NCc3ccncc3)ccc21 [Motesanib]
In a few lines: (§1)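 Viability here means nuclei in treated wells divided by nuclei in vehicle wells, reported as the median across plates. Only plates with control CV below 25% and at least one doubling passed. Lung cancer cell lines in 1536-well plates were exposed to five √10-spaced library-drug doses for 5 days and counted from 4× Hoechst images in MetaXpress.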

Compound in test [1]: C[C@@]1(C(=O)Nc2ccc(F)nc2)CCCN1c1nc(Nc2cc(C3CC3)n[nH]2)c2cccn2n1
A digest of the protocol: as §1

Compound in the test “Motesanib + Alpelisib”: CC1(C)CNc2cc(NC(=O)c3cccnc3NCc3ccncc3)ccc21 [Motesanib] + Cc1nc(NC(=O)N2CCC[C@H]2C(N)=O)sc1-c1ccnc(C(C)(C)C(F)(F)F)c1 [Alpelisib] (partner 2 µM)
In a few lines: (§2)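 Five library-drug doses in √10 steps were combined with a fixed anchor-drug dose, or a single drug was given alone, by pin tool to lung cancer cell lines in 1536-well plates the day after seeding. Nuclei were stained and counted after 5 days. Relative viability is the nuclei count in treated wells over that in vehicle wells, taken as the median of duplicate plates.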

Compound in test [2]: C[C@@]1(C(=O)Nc2ccc(F)nc2)CCCN1c1nc(Nc2cc(C3CC3)n[nH]2)c2cccn2n1 + Nc1nc2[nH]cc(CCc3ccc(C(=O)N[C@@H](CCC(=O)O)C(=O)O)cc3)c2c(=O)[nH]1 [Pemetrexed] (partner 0.2 µM)
A digest of the protocol:
as §2

As to COR-L 105, the relative viability with Motesanib (0.01 µM) is 1.05; with Motesanib (0.03162 µM) it was 0.875; with Motesanib (0.1 µM), 0.905; with Motesanib (0.3162 µM) it was 0.957; in the test with Motesanib (1 µM), 0.997; in test [1] (0.04 µM), 1.01. In addition, the relative viability worked out at 0.662 in test [1] (0.1265 µM); 0.781 in test [1] (0.4 µM); 0.681 in test [1] (1.265 µM); 0.872 with Motesanib + Alpelisib (first compound 0.01 µM); 1.16 with Motesanib + Alpelisib (first compound 0.03162 µM); 0.992 in the test with Motesanib + Alpelisib (first compound 0.1 µM). In addition, the relative viability came out at 0.79 with Motesanib + Alpelisib (first compound 0.3162 µM); 1.26 with Motesanib + Alpelisib (first compound 1 µM); 1.07 in test [2] (first compound 0.04 µM); 0.658 in test [2] (first compound 0.1265 µM); 0.865 in test [2] (first compound 0.4 µM); 1.1 in test [2] (first compound 1.265 µM).

Regarding EKVX, the relative viability in the test with Motesanib (0.01 µM) came to 0.919; in the test with Motesanib (0.03162 µM), 1; with Motesanib (0.1 µM) it was 1.01; with Motesanib (0.3162 µM) it was 0.928; in the test with Motesanib (1 µM), 1.08; in test [1] (0.04 µM) it was 0.963. In addition, the relative viability in test [1] (0.1265 µM) was determined as 0.762; in test [1] (0.4 µM), 0.733; in test [1] (1.265 µM) it was 0.815; with Motesanib + Alpelisib (first compound 0.01 µM), 0.778; with Motesanib + Alpelisib (first compound 0.03162 µM) it was 0.883; with Motesanib + Alpelisib (first compound 0.1 µM), 0.875. Moreover, the relative viability with Motesanib + Alpelisib (first compound 0.3162 µM) came to 0.922; in the test with Motesanib + Alpelisib (first compound 1 µM), 0.895; in test [2] (first compound 0.04 µM), 0.415; in test [2] (first compound 0.1265 µM), 0.307; in test [2] (first compound 0.4 µM) it was 0.349; in test [2] (first compound 1.265 µM), 0.356.

As for EMC-BAC-2, the relative viability with Motesanib (0.01 µM) turned out to be 0.964; with Motesanib (0.03162 µM) it was 1.01; with Motesanib (0.1 µM), 0.987; with Motesanib (0.3162 µM) it was 1.05; in the test with Motesanib (1 µM) it was 0.95; in test [1] (0.04 µM), 0.848. In addition, the relative viability in test [1] (0.1265 µM) turned out to be 0.766; in test [1] (0.4 µM) it was 0.642; in test [1] (1.265 µM), 0.593; with Motesanib + Alpelisib (first compound 0.01 µM), 0.76; with Motesanib + Alpelisib (first compound 0.03162 µM), 0.742; with Motesanib + Alpelisib (first compound 0.1 µM), 0.768. The relative viability worked out at 0.731 with Motesanib + Alpelisib (first compound 0.3162 µM); 0.704 in the test with Motesanib + Alpelisib (first compound 1 µM); 0.454 in test [2] (first compound 0.04 µM); 0.42 in test [2] (first compound 0.1265 µM); 0.471 in test [2] (first compound 0.4 µM); 0.439 in test [2] (first compound 1.265 µM).

In the case of EPLC-272H, the relative viability came out at 0.918 in the test with Motesanib (0.01 µM); 1.04 with Motesanib (0.03162 µM); 0.761 in the test with Motesanib (0.1 µM); 1.04 with Motesanib (0.3162 µM); 0.976 with Motesanib (1 µM); 1.04 in test [1] (0.04 µM). Besides, the relative viability was found to be 0.645 in test [1] (0.1265 µM); 0.744 in test [1] (0.4 µM); 0.764 in test [1] (1.265 µM); 0.908 with Motesanib + Alpelisib (first compound 0.01 µM); 1.12 with Motesanib + Alpelisib (first compound 0.03162 µM); 0.898 with Motesanib + Alpelisib (first compound 0.1 µM). The relative viability in the test with Motesanib + Alpelisib (first compound 0.3162 µM) stood at 0.897; with Motesanib + Alpelisib (first compound 1 µM), 0.914; in test [2] (first compound 0.04 µM), 0.358; in test [2] (first compound 0.1265 µM), 0.291; in test [2] (first compound 0.4 µM), 0.349; in test [2] (first compound 1.265 µM), 0.23.

As to H3255, the relative viability turned out to be 0.905 with Motesanib (0.01 µM); 1.04 with Motesanib (0.03162 µM); 0.978 in the test with Motesanib (0.1 µM); 1.05 with Motesanib (0.3162 µM); 1.01 with Motesanib (1 µM); 1.05 in test [1] (0.04 µM). The relative viability in test [1] (0.1265 µM) worked out at 0.954; in test [1] (0.4 µM), 0.931; in test [1] (1.265 µM) it was 0.882; with Motesanib + Alpelisib (first compound 0.01 µM), 0.78; with Motesanib + Alpelisib (first compound 0.03162 µM), 0.7; in the test with Motesanib + Alpelisib (first compound 0.1 µM), 0.762. In addition, the relative viability in the test with Motesanib + Alpelisib (first compound 0.3162 µM) was determined as 0.684; with Motesanib + Alpelisib (first compound 1 µM) it was 0.771; in test [2] (first compound 0.04 µM), 0.602; in test [2] (first compound 0.1265 µM), 0.523; in test [2] (first compound 0.4 µM), 0.528; in test [2] (first compound 1.265 µM), 0.484.

HARA: the relative viability worked out at 0.959 with Motesanib (0.01 µM); 1.1 with Motesanib (0.03162 µM); 0.909 in the test with Motesanib (0.1 µM); 1.09 in the test with Motesanib (0.3162 µM); 0.997 with Motesanib (1 µM); 0.815 in test [1] (0.04 µM). Also, the relative viability was found to be 1.01 in test [1] (0.1265 µM); 0.756 in test [1] (0.4 µM); 0.723 in test [1] (1.265 µM); 0.808 with Motesanib + Alpelisib (first compound 0.01 µM); 0.852 in the test with Motesanib + Alpelisib (first compound 0.03162 µM); 0.815 with Motesanib + Alpelisib (first compound 0.1 µM). Also, the relative viability is 0.943 in the test with Motesanib + Alpelisib (first compound 0.3162 µM); 0.831 with Motesanib + Alpelisib (first compound 1 µM); 0.222 in test [2] (first compound 0.04 µM); 0.241 in test [2] (first compound 0.1265 µM); 0.227 in test [2] (first compound 0.4 µM); 0.228 in test [2] (first compound 1.265 µM).

Consider HCC-15, for which the relative viability with Motesanib (0.01 µM) came out at 0.955; in the test with Motesanib (0.03162 µM) it was 0.972; with Motesanib (0.1 µM), 0.896; with Motesanib (0.3162 µM), 1.16; with Motesanib (1 µM), 1.01; in test [1] (0.04 µM), 0.85. Moreover, the relative viability in test [1] (0.1265 µM) worked out at 0.667; in test [1] (0.4 µM), 0.727; in test [1] (1.265 µM), 0.764; in the test with Motesanib + Alpelisib (first compound 0.01 µM), 0.97; in the test with Motesanib + Alpelisib (first compound 0.03162 µM) it was 0.885; in the test with Motesanib + Alpelisib (first compound 0.1 µM), 0.969. Further, the relative viability with Motesanib + Alpelisib (first compound 0.3162 µM) came to 0.972; in the test with Motesanib + Alpelisib (first compound 1 µM) it was 0.931; in test [2] (first compound 0.04 µM), 0.216; in test [2] (first compound 0.1265 µM), 0.225; in test [2] (first compound 0.4 µM) it was 0.209; in test [2] (first compound 1.265 µM), 0.211.

With HCC-44, the relative viability in the test with Motesanib (0.01 µM) was found to be 0.978; in the test with Motesanib (0.03162 µM), 0.957; in the test with Motesanib (0.1 µM) it was 1.02; with Motesanib (0.3162 µM), 1.04; with Motesanib (1 µM), 0.989; in test [1] (0.04 µM), 0.99. The relative viability in test [1] (0.1265 µM) was 0.904; in test [1] (0.4 µM) it was 0.716; in test [1] (1.265 µM) it was 0.737; with Motesanib + Alpelisib (first compound 0.01 µM), 0.771; with Motesanib + Alpelisib (first compound 0.03162 µM), 0.774; in the test with Motesanib + Alpelisib (first compound 0.1 µM), 0.862. Besides, the relative viability in the test with Motesanib + Alpelisib (first compound 0.3162 µM) was found to be 0.785; with Motesanib + Alpelisib (first compound 1 µM), 0.827; in test [2] (first compound 0.04 µM) it was 0.688; in test [2] (first compound 0.1265 µM) it was 0.6; in test [2] (first compound 0.4 µM), 0.627; in test [2] (first compound 1.265 µM) it was 0.618.

These data come from the supplement of paper PMC10307832.
